Laboratory results as given in patent US20220289728A1, “MODULATORS OF TREX1” (Constellation Pharmaceuticals, Inc., priority 2019, published 2022).

What was measured:
HCT116 dual cells = experiment: HCT116 Cell Assay (Lucia luciferase reporter of Type I interferon induction); format: cell-based, human; details: Homo sapiens, HCT-116, 4 h pre-treatment, pBR322/BstNI DNA transfection, Lucia luciferase at 48 h; relative to 10 uM compound 39
Procedure, shortened: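 Cells were pretreated with compound for 4 h (≤0.1% DMSO), then transfected with pBR322/BstNI DNA (1.25 ug/mL; 100 ng/well) using Lipofectamine LTX. Secreted Lucia luciferase in the medium was read after 48 h at 37 °C. EC50 came from four-parameter fits normalised to no-inhibitor and 10 uM reference-inhibitor controls.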

[1] = target: T1, human TREX2 (residues M44-A279) (Homo sapiens, UniProt Q9BQ50); experiment: TREX2 Biochemical Assay (fluorescence, dsDNA substrate degradation); details: 2.5 nM TREX2, 60 nM dsDNA substrate, 25 minutes at room temperature
T1 construct: human TREX2 (residues M44-A279, expressed in E. coli); His-TEV (His tag with TEV site) (N); made in house; host or cells: E. coli
T1 sequence (Q9BQ50 44-279 isoform Q9BQ50-1): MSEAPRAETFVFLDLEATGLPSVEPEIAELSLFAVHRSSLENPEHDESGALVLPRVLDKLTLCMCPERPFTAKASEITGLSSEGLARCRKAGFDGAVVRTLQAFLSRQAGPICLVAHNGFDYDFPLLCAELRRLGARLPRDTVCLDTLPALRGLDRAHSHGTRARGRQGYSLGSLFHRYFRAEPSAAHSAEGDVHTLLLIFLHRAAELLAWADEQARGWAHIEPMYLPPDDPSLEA
Procedure, shortened: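 Final conditions: 2.5 nM His-Tev-tagged TREX2 (E. coli-expressed), 60 nM fluorophore/quencher-labelled dsDNA, 50 mM Tris pH 7.4, 150 mM NaCl, 100 mM MgCl2, 1% DMSO; 10-point compound dose-response. Incubated 25 min at room temperature, then EDTA-quenched; fluorescence read at ex 570/em 615 nm. IC50 from four-parameter fit against pre-quenched and no-inhibitor controls.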

full length human TREX1 = target: T2, full length human TREX1 (Homo sapiens, UniProt Q9NSU2); experiment: TREX1 Biochemical Assay (fluorescence, dsDNA substrate degradation); details: 150 pM TREX1, 60 nM dsDNA substrate, 25 minutes at room temperature
T2 construct: N-terminally His-Tev tagged full length human TREX1; His-TEV (His tag with TEV site) (N); made in house; host or cells: E. coli
T2 sequence (Q9NSU2 1-314): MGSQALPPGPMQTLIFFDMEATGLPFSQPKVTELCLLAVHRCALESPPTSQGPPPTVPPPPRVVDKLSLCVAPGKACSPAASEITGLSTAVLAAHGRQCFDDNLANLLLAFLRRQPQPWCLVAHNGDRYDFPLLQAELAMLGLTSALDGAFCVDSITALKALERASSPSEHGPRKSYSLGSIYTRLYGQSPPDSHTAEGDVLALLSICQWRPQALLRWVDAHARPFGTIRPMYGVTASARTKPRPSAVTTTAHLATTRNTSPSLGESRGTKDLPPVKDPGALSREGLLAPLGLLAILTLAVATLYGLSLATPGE
Procedure, shortened: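 N-terminally His-Tev-tagged TREX1 was expressed in E. coli; 150 pM enzyme was run with 60 nM TEX615/quencher-labelled dsDNA at pH 7.4 in 1.0% DMSO for 25 min at room temperature, then quenched with EDTA. Fluorescence at 615 nm (570 nm excitation) was normalised to pre-quenched and no-inhibitor controls, and IC50 came from four-parameter fits.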

Row | EC50 (HCT116 dual cells) [µM] | IC50 [1] [µM] | IC50 (full length human TREX1) [nM] | Structure (SMILES)
1 | 10 to 100 | 1 to 10 | < 100 | CC(C)N(Cc1ccccc1)c1nc(C(=O)Nc2cnoc2)c(O)c(=O)n1C [Example 29]
2 | 1 to 10 | 1 to 10 | < 100 | Cc1cccnc1C(c1ccccc1)N(C)c1nc(C(=O)Nc2cnoc2)c(O)c(=O)n1C (single isomer, unassigned) [Example 58]
3 | 10 to 100 | 1 to 10 | < 100 | CN(Cc1cccc(-c2cnn(C)c2)c1)c1nc(C(=O)Nc2cnoc2)c(O)c(=O)n1C [Example 19]
4 | 10 to 100 | 10 to 100 | < 100 | CN(Cc1ccc(Cl)cc1)c1nc(C(=O)Nc2cnoc2)c(O)c(=O)n1C [Example 9]
5 | 1 to 10 | < 1 | < 100 | CC(c1c(Cl)cccc1Cl)N(C)c1nc(C(=O)Nc2cnoc2)c(O)c(=O)n1C (single isomer, unassigned) [Example 70]
